Data from ChEMBL document CHEMBL3301361, “Experimental in vitro DMPK and physicochemical data on a set of publicly disclosed compounds”.
In brackets after ≈: the same amount, converted by molar mass.

Key:
in vitro [1] = settings: mouse, plasma
physchem [2] = settings: octan-1-ol/water
in vitro [3] = settings: human
in vitro [4] = settings: SD, HW or BN, rat, plasma
in vitro [5] = settings: human, plasma
physchem [6] = assay: physchem
physchem [7] = assay: physchem; remark: listed apart in the source
physchem [8] = settings: pH 7.4 buffer
in vitro [9] = settings: Beagle, dog, plasma
in vitro [10] = settings: hepatocytes
in vitro [11] = settings: human, hepatocytes

| Compound | fraction unbound at 5 h (in vitro [1]) | logD (physchem [2]; pH 7.4, LogD7.4) | fraction unbound at 5 h (in vitro [4]) | fraction unbound at 5 h (in vitro [5]; PPB) | pKa (physchem [6]) | pKa (physchem [7]) | fraction unbound at 5 h (in vitro [9]) | also measured |
| --- | --- | --- | --- | --- | --- | --- | --- | --- |
| COc1cc(-n2nnc3cc(-c4ccc(Cl)cc4)sc3c2=O)ccc1N1CC[C@@H](O)C1 | 0.0021 | 3.15 | – | – | – | – | – | – |
| CCCn1c(=O)c2[nH]c(-c3cnn(Cc4cccc(C(F)(F)F)c4)c3)nc2n(CC)c1=O [GS 6201] | 0.001 | – | – | – | – | – | – | – |
| CC(C)[C@@H]1CC[C@@H](C)C[C@@H]1P(=O)(c1ccccc1)c1ccccc1 | 0.0039 | – | – | – | – | – | – | – |
| COCCOc1nc(N)c2[nH]c(=O)n(Cc3ccccc3)c2n1 | – | 2.26 | 0.376 | 0.105 | 9.5 | 2.4 | – | microsomal CLint (in vitro [3]; liver microsomes): < 3 µL/min/mg |
| Cc1cc(CN2Cc3ccccc3C2C(=O)Nc2ccc(Cl)cc2Cl)ccc1OCC(=O)O (centres undefined) | – | 2.62 | 0.0014 | 0.0013 | 3.1 | 5.6 | – | solubility thermodynamic (physchem [8]): 479 µM (≈ 232 µg/mL) |
| O=S(=O)(Nc1ncns1)c1cc(F)c(Oc2ccc(Cl)cc2-c2ccnn2C2CNC2)cc1F | – | – | 0.0532 | 0.02 | 3.19 | 10.1 | 0.0437 | – |
| Fc1ccc(-c2cc(C3CCN(Cc4ccn(-c5ccc(C(F)(F)F)cc5)c4)CC3)no2)cc1 | 0.0005 | – | – | – | – | – | – | – |
| Cc1ccc2c(c1)c(-c1ccnc3cc(Cl)ccc13)c(C)n2CC(=O)O | – | 1.59 | – | 0.0018 | 5 | 2.6 | 0.0035 | microsomal CLint (in vitro [3]; liver microsomes): 4 µL/min/mg |
| CCN(CC)CCNC(=O)c1ccc(NS(C)(=O)=O)cc1 [SEMATILIDE] | – | – | 0.899 | 0.849 | 7.52 | 9.35 | 0.899 | – |
| O=C(Nc1ccc(Cl)c(S(=O)(=O)N2CCNCC2)c1O)Nc1cccc(F)c1Cl [ELUBRIXIN] | – | 2.6 | 0.0106 | 0.0029 | 5.9 | 8.5 | 0.0127 | hepatocyte CLint (in vitro [10]): 41.4 µL/min/1e6 cells; hepatocyte CLint (in vitro [11]): < 3 µL/min/1e6 cells; solubility thermodynamic (physchem [8]): 457 µM (≈ 212 µg/mL) |
| C[C@H]1CN(Cc2cc(Cl)ccc2OCC(=O)O)CCN1C(=O)Cc1ccccc1 | – | – | 0.11 | – | 2.5 | 7 | 0.0784 | microsomal CLint (in vitro [3]; microsomes): < 3 µL/min/mg; fraction unbound at 5 h (in vitro [5]): 0.0262; logD (physchem [2]; pH 7.4): 0.18 |
| CCCSc1ccc2nc(NC(=O)OC)[nH]c2c1 [ALBENDAZOLE] | – | – | 0.0581 | – | 10.5 | 5.88 | – | hepatocyte CLint (in vitro [10]): 83.2 µL/min/1e6 cells; microsomal CLint (in vitro [3]; microsomes): 34.7 µL/min/mg; fraction unbound at 5 h (in vitro [5]): 0.0457; solubility thermodynamic (physchem [8]): 1.6 µM (≈ 0.425 µg/mL); logD (physchem [2]; pH 7.4): 3.24 |
| CN(C)S(=O)(=O)NC(=O)CCCc1c(-c2ccc(F)cc2)[nH]c2ccc(C#N)cc12 | – | – | 0.0042 | 0.0041 | 5.5 | – | 0.0196 | hepatocyte CLint (in vitro [10]): < 3 µL/min/1e6 cells; microsomal CLint (in vitro [3]; microsomes): 8.86 µL/min/mg; solubility thermodynamic (physchem [8]): 4.8 µM (≈ 2.06 µg/mL) |
| N#Cc1ccc(NC(=O)Nc2ccccc2Br)c2nn[nH]c12 | – | 1.64 | – | 0.0042 | 6.2 | – | 0.0049 | hepatocyte CLint (in vitro [10]): 69 µL/min/1e6 cells; microsomal CLint (in vitro [3]; microsomes): 23 µL/min/mg |
| Cc1nn(C)c(C)c1-c1ccc(-c2nc3ccncc3c(O)c2C#N)cc1 | 0.0343 | – | – | – | – | – | – | – |
| Cc1ccc2c(c1)c(S(=O)(=O)c1ccc(Cl)cc1)c(C)n2CC(=O)O | – | 0.06 | – | 0.0052 | 3.7 | – | 0.0167 | microsomal CLint (in vitro [3]; liver microsomes): 7 µL/min/mg |
| Cc1nn(C2CCOCC2)c(NS(=O)(=O)c2ccc(C3CC3)cc2)c1C(=O)N[C@@H](C)C(C)(C)C | – | 1.23 | 0.11 | 0.0736 | 5 | – | 0.107 | – |
| Cc1cc(CN2Cc3ccccc3C[C@H]2C(=O)Nc2ccc(Cl)cc2Cl)ccc1OCC(=O)O | – | 2.41 | – | – | 3.1 | 6.2 | – | hepatocyte CLint (in vitro [10]): 31 µL/min/1e6 cells; microsomal CLint (in vitro [3]; microsomes): 11 µL/min/mg; solubility thermodynamic (physchem [8]): 347 µM (≈ 173 µg/mL) |
| COc1ccc(S(=O)(=O)NC(=O)N2CCC(N3CCC(Oc4ccc(Cl)c(Cl)c4)CC3)CC2)cc1 | – | 1.39 | – | 0.0127 | 3.6 | 8.3 | – | microsomal CLint (in vitro [3]; liver microsomes): < 3 µL/min/mg |

| Compound | fraction unbound at 5 h (in vitro [1]) | logD (physchem [2]; pH 7.4, LogD7.4) | fraction unbound at 5 h (in vitro [4]) | fraction unbound at 5 h (in vitro [5]; PPB) | pKa (physchem [6]) | pKa (physchem [7]) | fraction unbound at 5 h (in vitro [9]) | also measured |
| --- | --- | --- | --- | --- | --- | --- | --- | --- |
| CCS(=O)(=O)c1ccc(-c2cc(Cl)ccc2OCC(=O)O)c(Cl)c1 | – | -0.43 | – | 0.0268 | 3.4 | – | 0.0082 | microsomal CLint (in vitro [3]; liver microsomes): < 3 µL/min/mg |
| Nc1cc(-c2cc(C(F)(F)F)ccc2Oc2cc(F)c(S(=O)(=O)Nc3ncns3)cc2Cl)ccn1 | – | – | 0.0035 | – | 3.18 | 6.4 | – | – |
| O=C(O)COc1cccc(N2CCC(CN3CCC(Oc4ccc(Cl)c(Cl)c4)CC3)CC2)c1 | – | – | – | – | 3.7 | 9.3 | – | hepatocyte CLint (in vitro [10]): < 3 µL/min/1e6 cells; microsomal CLint (in vitro [3]; liver microsomes): 12 µL/min/mg |
| COc1ccc(-c2cc(C(F)F)nn2-c2ccc(S(N)(=O)=O)cc2)cc1F [DERACOXIB] | 0.0268 | 2.8 | – | – | – | – | – | – |
| CCC(CC)NC(=O)c1c(C)nn(-c2ccccc2)c1NS(=O)(=O)c1ccc(C)cc1 | – | 1.35 | 0.03 | 0.0049 | 4.2 | – | 0.0418 | hepatocyte CLint (in vitro [10]): 13.5 µL/min/1e6 cells; microsomal CLint (in vitro [3]; liver microsomes): 23.6 µL/min/mg; hepatocyte CLint (in vitro [11]): < 3 µL/min/1e6 cells |
| Nc1[nH]ncc1-c1cc(Cl)ccc1Oc1cc(F)c(S(=O)(=O)Nc2cscn2)cc1Cl [PF-05089771] | – | – | 0.0055 | 0.0024 | 6.2 | – | 0.0048 | hepatocyte CLint (in vitro [11]): 5.62 µL/min/1e6 cells |
| COc1ccc(COc2nc(Br)cnc2NS(=O)(=O)c2ccc(C)cc2)cc1OCCN(C)C | – | 1.68 | – | 0.0033 | 5.05 | 8.8 | – | hepatocyte CLint (in vitro [10]): 31 µL/min/1e6 cells; microsomal CLint (in vitro [3]; liver microsomes): 7 µL/min/mg; solubility thermodynamic (physchem [8]): 77.6 µM (≈ 42.8 µg/mL) |
| CC(C)Oc1ccc(-c2nc(-c3cccc4c(CCC(=O)O)c[nH]c34)no2)cc1Cl | 0.0005 | – | – | – | – | – | – | – |
| O=c1c2cc(-c3ccc(Cl)cc3)oc2ccn1-c1ccc2c(cnn2CCN2CCCC2)c1 | 0.0043 | – | – | – | – | – | – | – |
| O=C(O)c1cccc(C(=O)N2CCC(N3CCC(Oc4ccc(Cl)c(Cl)c4)CC3)CC2)c1 | – | 1.23 | – | 0.0499 | 3.4 | 8.6 | – | microsomal CLint (in vitro [3]; liver microsomes): < 3 µL/min/mg |
| O=C(NS(=O)(=O)c1ccc(F)cc1)N1CCC(N2CCC(Oc3ccc(Cl)c(Cl)c3)CC2)CC1 | – | 1.79 | – | 0.194 | 3 | 8.45 | – | microsomal CLint (in vitro [3]; microsomes): 11 µL/min/mg |
| CN1CCN(CC(=O)N2c3ccccc3C(=O)Nc3cccnc32)CC1 [PIRENZEPINE] | – | -0.49 | – | 0.76 | 10.7 | 7.88 | – | hepatocyte CLint (in vitro [10]): 6.76 µL/min/1e6 cells; microsomal CLint (in vitro [3]; liver microsomes): < 3 µL/min/mg |
| CC[C@H](Nc1ncnc2[nH]cnc12)c1nc2cccc(F)c2c(=O)n1-c1ccccc1 [IDELALISIB] | 0.19 | 2.72 | – | – | – | – | – | – |
| Cc1cc(CN(CC(=O)Nc2ccc(Cl)cc2Cl)C2CCCCC2)ccc1OCC(=O)O | – | – | – | – | 2.9 | 6.7 | – | hepatocyte CLint (in vitro [10]): 43.4 µL/min/1e6 cells; microsomal CLint (in vitro [3]; microsomes): 101 µL/min/mg; solubility thermodynamic (physchem [8]): 813 µM (≈ 390 µg/mL) |
| CCC#Cc1cncc(-c2ccc3c(c2)C2(N=C(C)C(N)=N2)[C@]2(CC[C@H](OC)CC2)C3)c1 (some centres undefined) | 0.02 | – | – | – | – | – | – | – |
| C[C@@H](CC(=O)OC(C)(C)C)NC(=O)C1=NOC(C(O)(C(F)(F)F)C(F)(F)F)C1 (some centres undefined) | 0.201 | – | – | – | – | – | – | – |
| Nc1nc(O)c(Cl)c(-c2ccccc2)n1 | – | – | 0.0661 | – | 7.45 | 2.35 | – | fraction unbound at 5 h (in vitro [5]): 0.0477 |
| Nc1scc2c(C(=O)NC3CC3)nn(-c3ccc(F)cc3)c(=O)c12 | 0.11 | 2.8 | – | – | – | – | – | – |
